# Measured values taken from ChEMBL document CHEMBL3885881, “DrugMatrix”.
# Species on record: Rattus norvegicus
# Assay: DrugMatrix - Regimen: Daily Repeat
# Format: toxicity, organism-based, Sprague-Dawley
# Set-up: regimen Daily Repeat, gender Male, age 6-8 weeks
# Conditions: in vivo, po, 300 mg/kg, route oral GAVAGE, dose level High, vehicle 100 % WATER; for ABSOLUTE BASOPHIL / ABSOLUTE EOSINOPHIL / ABSOLUTE LYMPHOCYTE / ABSOLUTE MONOCYTE / ABSOLUTE SEGMENTED NEUTROPHIL / BASOPHIL / EOSINOPHIL / ERYTHROCYTE COUNT / HEMATOCRIT / HEMOGLOBIN / LEUKOCYTE COUNT / LYMPHOCYTE / MEAN CORPUSCULAR HEMOGLOBIN / MEAN CORPUSCULAR HEMOGLOBIN CONCENTRATION / MEAN CORPUSCULAR VOLUME / MONOCYTE / NEUTROPHIL / NUCLEATED RED BLOOD CELLS / PLATELET COUNT: tissue Blood; for ALANINE AMINOTRANSFERASE / ALBUMIN / ALKALINE PHOSPHATASE / ASPARTATE AMINOTRANSFERASE / BLOOD UREA NITROGEN / CARBON DIOXIDE / CHLORIDE / CHOLESTEROL / CREATINE PHOSPHOKINASE / CREATININE / GLUCOSE / LACTATE DEHYDROGENASE / LIPASE / PHOSPHORUS / POTASSIUM / SODIUM / TOTAL BILIRUBIN / TOTAL PROTEIN / URIC ACID: tissue Plasma
smiles,measurement,setting,value
OC(CCCN1CCCCC1)(c1ccccc1)c1ccccc1 [DIPHENIDOL],ABSOLUTE BASOPHIL,"72 h, time 3 day",0 CELLS/uL
same,ABSOLUTE EOSINOPHIL,"72 h, time 3 day",58 CELLS/uL
same,ABSOLUTE LYMPHOCYTE,"72 h, time 3 day",16577.33 CELLS/uL
same,ABSOLUTE MONOCYTE,"72 h, time 3 day",58 CELLS/uL
same,ABSOLUTE SEGMENTED NEUTROPHIL,"72 h, time 3 day",1540 CELLS/uL
same,BASOPHIL,"72 h, time 3 day",0%
same,EOSINOPHIL,"72 h, time 3 day",0.33%
same,ERYTHROCYTE COUNT,"72 h, time 3 day",5.58 x10E6/uL
same,HEMATOCRIT,"72 h, time 3 day",35.57%
same,HEMOGLOBIN,"72 h, time 3 day",14.3 G/DL
same,LEUKOCYTE COUNT,"72 h, time 3 day",18.23 x10E3/uL
same,LYMPHOCYTE,"72 h, time 3 day",91%
same,MEAN CORPUSCULAR HEMOGLOBIN,"72 h, time 3 day",25.63 pg
same,MEAN CORPUSCULAR HEMOGLOBIN CONCENTRATION,"72 h, time 3 day",40.17 G/DL
same,MEAN CORPUSCULAR VOLUME,"72 h, time 3 day",63.8 fL
same,MONOCYTE,"72 h, time 3 day",0.33%
same,NEUTROPHIL,"72 h, time 3 day",8.33%
same,NUCLEATED RED BLOOD CELLS,"72 h, time 3 day",0 /100WBC
same,PLATELET COUNT,"72 h, time 3 day",1352.67 x10E3/uL
same,ALANINE AMINOTRANSFERASE,"72 h, time 3 day",52 u/L
same,ALBUMIN,"72 h, time 3 day",4.3 G/DL
same,ALKALINE PHOSPHATASE,"72 h, time 3 day",318.33 u/L
same,ASPARTATE AMINOTRANSFERASE,"72 h, time 3 day",74 u/L
same,BLOOD UREA NITROGEN,"72 h, time 3 day",15.67 mg/dL
same,CARBON DIOXIDE,"72 h, time 3 day",24.67 mmol/L
same,CHLORIDE,"72 h, time 3 day",103.33 MEQ/L
same,CHOLESTEROL,"72 h, time 3 day",80.33 mg/dL
same,CREATINE PHOSPHOKINASE,"72 h, time 3 day",184 u/L
same,CREATININE,"72 h, time 3 day",0.24 mg/dL
same,GLUCOSE,"72 h, time 3 day",156.67 mg/dL
same,LACTATE DEHYDROGENASE,"72 h, time 3 day",139.67 u/L
same,LIPASE,"72 h, time 3 day",9 u/L
same,PHOSPHORUS,"72 h, time 3 day",13.97 mg/dL
same,POTASSIUM,"72 h, time 3 day",7.22 MEQ/L
same,SODIUM,"72 h, time 3 day",146.87 MEQ/L
same,TOTAL BILIRUBIN,"72 h, time 3 day",0.13 mg/dL
same,TOTAL PROTEIN,"72 h, time 3 day",6.27 G/DL
same,URIC ACID,"72 h, time 3 day",1.77 mg/dL
same,ABSOLUTE BASOPHIL,"120 h, time 5 day",0 CELLS/uL
same,ABSOLUTE EOSINOPHIL,"120 h, time 5 day",44 CELLS/uL
same,ABSOLUTE LYMPHOCYTE,"120 h, time 5 day",14983.33 CELLS/uL
same,ABSOLUTE MONOCYTE,"120 h, time 5 day",56.33 CELLS/uL
same,ABSOLUTE SEGMENTED NEUTROPHIL,"120 h, time 5 day",783 CELLS/uL
same,BASOPHIL,"120 h, time 5 day",0%
same,EOSINOPHIL,"120 h, time 5 day",0.33%
same,ERYTHROCYTE COUNT,"120 h, time 5 day",5.89 x10E6/uL
same,HEMATOCRIT,"120 h, time 5 day",35.8%
same,HEMOGLOBIN,"120 h, time 5 day",14.47 G/DL
same,LEUKOCYTE COUNT,"120 h, time 5 day",15.87 x10E3/uL
same,LYMPHOCYTE,"120 h, time 5 day",94.33%
same,MEAN CORPUSCULAR HEMOGLOBIN,"120 h, time 5 day",24.63 pg
same,MEAN CORPUSCULAR HEMOGLOBIN CONCENTRATION,"120 h, time 5 day",40.43 G/DL
same,MEAN CORPUSCULAR VOLUME,"120 h, time 5 day",60.97 fL
same,MONOCYTE,"120 h, time 5 day",0.33%
same,NEUTROPHIL,"120 h, time 5 day",5%
same,NUCLEATED RED BLOOD CELLS,"120 h, time 5 day",0.33 /100WBC
same,PLATELET COUNT,"120 h, time 5 day",1311 x10E3/uL
same,ALANINE AMINOTRANSFERASE,"120 h, time 5 day",67.67 u/L
same,ALBUMIN,"120 h, time 5 day",4.47 G/DL
same,ALKALINE PHOSPHATASE,"120 h, time 5 day",383 u/L
same,ASPARTATE AMINOTRANSFERASE,"120 h, time 5 day",106.33 u/L
same,BLOOD UREA NITROGEN,"120 h, time 5 day",14.33 mg/dL
same,CARBON DIOXIDE,"120 h, time 5 day",23 mmol/L
same,CHLORIDE,"120 h, time 5 day",101 MEQ/L
same,CHOLESTEROL,"120 h, time 5 day",53.67 mg/dL
same,CREATINE PHOSPHOKINASE,"120 h, time 5 day",291 u/L
same,CREATININE,"120 h, time 5 day",0.27 mg/dL
same,GLUCOSE,"120 h, time 5 day",161 mg/dL
same,LACTATE DEHYDROGENASE,"120 h, time 5 day",445 u/L
same,LIPASE,"120 h, time 5 day",11 u/L
same,PHOSPHORUS,"120 h, time 5 day",14.9 mg/dL
same,POTASSIUM,"120 h, time 5 day",6.65 MEQ/L
same,SODIUM,"120 h, time 5 day",146.5 MEQ/L
same,TOTAL BILIRUBIN,"120 h, time 5 day",0.1 mg/dL
same,TOTAL PROTEIN,"120 h, time 5 day",6.2 G/DL
same,URIC ACID,"120 h, time 5 day",2.83 mg/dL
